{"source": "patent US20250144085A1", "about": "“PHARMACEUTICAL COMPOSITION FOR PREVENTING OR TREATING CANCER COMPRISING OMEPRAZOLE BROWNING MATTER” (NEW CANCER CURE BIO CO., LTD, priority 2021, published 2025)", "test_system": "pancreatic cancer (MIA PaCa2) cell line", "assay": "sulforhodamine B colorimetric assay (SRB assay) of cancer cell death", "type": "cell-based", "settings": "48 hours; for Cancer cell killing rate (%) by treatment with omeprazole (KN510) degradation substance: 0.1%; for Cancer cell growth rate following treatment with omeprazole (KN510) degradation substance, average(%): treated at a concentration of 0.1%", "protocol": "In order to confirm the anticancer activity of the omeprazole (KN510) degradation substances (acid degradation substances) and base degradation substances prepared in Example 1 above, the cancer cell killing effect of each of the omeprazole (KN510) degradation substances was determined. The extent of cancer cell death was measured by sulforhodamine B colorimetric assay (SRB assay), which was performed as follows: A pancreatic cancer (MIA PaCa2) cell line (100 μ ? ) was inoculated into 96-well cell culture plates at a density ranging from 7,500 to 10,000 cells/well depending on the doubling time. Each of the omeprazole (KN510) degradation substances prepared in Example 1 above was treated at a concentration of 0.1% and incubated in a CO2 incubator for 48 hours, after which the assay was terminated by adding cold TCA. Cells were fixed intact by gently adding 50 μl of cold 50% (w/v) TCA (final concentration: 10% TCA) and incubated at 4° C. for 60 min. The supernatant was discarded, and the plate was washed five times with distilled water and then air dried. A solution (100 μl) of 0.4% (w/v) sulforhodamine B in 1% acetic acid was added to each well, and the plate was left at room temperature for 10 min. After staining, unbound dye was removed by washing five times with 1% acetic acid, and the plate was air-dried. The bound dye was then solubilized with 10 mM trizma base, and the absorbance was recorded at 515 nm using an automated plate reader. All experiments were performed in triplicate, and data were expressed as mean±standard deviation values."}
{"smiles": "COc1ccc2[nH]c([S+]([O-])Cc3ncc(C)c(OC)c3C)nc2c1", "note": "(centres unmarked) [omeprazole (KN510), omeprazole]", "values": [{"measurement": "Cancer cell killing rate (%) by treatment with omeprazole (KN510) degradation substance", "setting": "compared to the control group using the values in Table 1", "value": "about 32%"}, {"measurement": "Cancer cell killing rate (%) by treatment with omeprazole (KN510) degradation substance", "setting": "compared to the control group using the values in Table 1, listed as KN510 + 1M HCl 0 μl", "value": 31.85, "unit": "%"}, {"measurement": "Cancer cell killing rate (%) by treatment with omeprazole (KN510) degradation substance", "setting": "compared to the control group using the values in Table 1, listed as KN510 + 1M NaOH 0 μl", "value": 32.82, "unit": "%"}, {"measurement": "Cancer cell growth rate following treatment with omeprazole (KN510) degradation substance, average(%)", "setting": "control = 100.00, listed as KN510 + 1M HCl 0 μl", "value": 68.15, "unit": "%"}, {"measurement": "Cancer cell growth rate following treatment with omeprazole (KN510) degradation substance, average(%)", "setting": "control = 100.00, listed as KN510 + 1M NaOH 0 μl", "value": 67.18, "unit": "%"}]}
